Source: patent publication US8470810B2, “Heterocyclic compounds suitable for treating disorders that respond to modulation of the dopamine D3 receptor” (Abbott GmbH & Co. KG, priority 2004, dated 2013)

What was measured:
[1] = target: T1, human dopamine D3 receptors (Homo sapiens, UniProt P35462); assay: Dopamine D3 receptor binding, displacement of [125I]-iodosulpride; conditions: for Ki: membranes of HEK-293 cells stably expressing human D3, 0.1 nM [125I]-iodosulpride, 25° C., 60 minutes; for Ki(D2)*/Ki(D3)*: selectivity ratio of the receptor binding constants D2 over D3
T1 construct: expressed in transfected cells
Procedure: (§1) The substance to be tested was either dissolved in methanol/Chremophor® (BASFAG) or in dimethyl sulfoxide and then diluted with water to the desired concentration.
(§2) Each assay mixture was run in triplicate.
The incubation buffer contained 50 mM tris, 120 mM NaCl, 5 mM KCl, 2 mM CaCl2, 2 mM MgCl2 and 0.1% bovine serum albumin, 10 μM quinolone and 0.1% ascorbic acid (prepared fresh daily). The buffer was adjusted to pH 7.4 with HCl.
(§3) After having been incubated at 25° C. for 60 minutes, the assay mixtures were filtered through a Whatman GF/B glass fiber filter under vacuum using a cell collecting device. The filters were transferred to scintillation viols using a filter transfer system. After 4 ml of Ultima Gold® (Packard) have been added, the samples were shaken for one hour and the radioactivity was then counted in a Beta-Counter (Packard, Tricarb 2000 or 2200CA). The cpm values were converted into dpm using a standard quench series and the program belonging to the instrument.
(§4) The inhibition curves were analyzed by means of iterative nonlinear regression analysis using the Statistical Analysis System (SAS) which is similar to the “LIGAND” program described by Munson and Rodbard.
(§5) The results of the receptro binding studies are expressed as receptor binding constants Ki(D2) and Ki(D3), respectively, as herein before described, and given in table 6.

[2] = target: T2, human dopamine D2L receptors (long isoform) (Homo sapiens, UniProt P14416); assay: Dopamine D2L receptor binding, displacement of [125I] iodospiperone; conditions: membranes of HEK-293 cells stably expressing human D2L; 0.01 nM [125I] iodospiperone; 25° C., 60 minutes; read-out: Ki(D2)*
T2 construct: expressed in transfected cells
Procedure: as §1, §2
The incubation buffer contained 50 mM tris, 120 mM NaCl, 5 mM KCl, 2 mM CaCl2, 2 mM MgCl2 and 0.1% bovine serum albumin. The buffer was adjusted to pH 7.4 with HCl.
as §3, §4, §5

T1 sequence (P35462 whole entry): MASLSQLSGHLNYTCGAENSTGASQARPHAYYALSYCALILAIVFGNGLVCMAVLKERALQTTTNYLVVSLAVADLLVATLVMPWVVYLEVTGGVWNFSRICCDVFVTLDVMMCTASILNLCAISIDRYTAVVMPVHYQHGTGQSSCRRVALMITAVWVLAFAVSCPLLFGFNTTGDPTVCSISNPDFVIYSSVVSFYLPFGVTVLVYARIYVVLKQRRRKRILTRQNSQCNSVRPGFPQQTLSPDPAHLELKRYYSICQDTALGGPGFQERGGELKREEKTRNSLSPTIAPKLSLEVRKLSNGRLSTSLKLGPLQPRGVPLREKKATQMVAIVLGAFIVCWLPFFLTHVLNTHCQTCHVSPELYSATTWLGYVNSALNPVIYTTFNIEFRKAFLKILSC
T2 sequence (P14416 whole entry, canonical isoform): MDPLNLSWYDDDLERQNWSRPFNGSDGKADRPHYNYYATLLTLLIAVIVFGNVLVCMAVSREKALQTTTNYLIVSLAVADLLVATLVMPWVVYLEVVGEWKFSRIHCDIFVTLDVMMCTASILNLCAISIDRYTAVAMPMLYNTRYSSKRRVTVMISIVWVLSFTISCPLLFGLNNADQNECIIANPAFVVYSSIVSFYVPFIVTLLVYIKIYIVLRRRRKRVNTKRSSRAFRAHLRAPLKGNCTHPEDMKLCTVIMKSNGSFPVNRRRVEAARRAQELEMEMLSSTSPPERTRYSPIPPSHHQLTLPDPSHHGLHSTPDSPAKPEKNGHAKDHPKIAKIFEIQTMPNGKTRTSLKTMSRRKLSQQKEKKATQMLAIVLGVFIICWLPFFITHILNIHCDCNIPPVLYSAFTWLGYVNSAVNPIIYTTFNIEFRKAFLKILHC

Row | SMILES | Ki [1] | Ki(D2)*/Ki(D3)* [1] | Ki [2]
1 | CCCN1CC[C@@H](c2ccc(NS(=O)(=O)c3ccc(-n4cccn4)cc3)cc2)C1 [Example 69, N-[4-((S)-1-Propyl-pyrrolidin-3-yl)-phenyl]-4-pyrazol-1-yl-benzenesulfonamide] | 0.00251 µM | 36 | 0.0903 µM
2 | CCCN1CC[C@@H](c2ccc(NS(=O)(=O)c3ccc(-c4cnco4)cc3)cc2)C1 [Example 70, 4-Oxazol-5-yl-N-[4-((S)-1-propyl-pyrrolidin-3-yl)-phenyl]-benzenesulfonamide] | 0.00084 µM | 44 | 0.0373 µM
3 | CCCN1CC[C@@H](c2ccccc2NS(=O)(=O)c2ccc(-c3cnco3)cc2)C1 [Example 71, 4-Oxazol-5-yl-N-[2-((S)-1-propyl-pyrrolidin-3-yl)-phenyl]-benzenesulfonamide] | 0.00479 µM | 11 | 0.0523 µM
4 | CCCN1CC[C@@H](c2ccc(NS(=O)(=O)c3ccc(N4CCCC4=O)cc3)cc2)C1 [Example 72, 4-(2-Oxo-pyrrolidin-1-yl)-N-[4-((S)-1-propyl-pyrrolidin-3-yl)-Phenyl]-benzenesulfonamide] | 0.0351 µM | 13 | 0.473 µM
5 | CCCN1CC[C@@H](c2ccc(NS(=O)(=O)c3ccc(-c4ccco4)cc3)cc2)C1 [Example 73, 4-Furan-2-yl-N-[4-((S)-1-propyl-pyrrolidin-3-yl)-phenyl]-benzenesulfonamide] | 0.00061 µM |  | 0.00673 µM
6 | CCCN1CC[C@@H](c2ccc(NS(=O)(=O)c3ccc(N4CCC4)cc3)cc2)C1 [Example 75, 4-Azetidin-1-yl-N-[4-((S)-1-propyl-pyrrolidin-3-yl)-phenyl]-benzenesulfonamide] | 0.00063 µM | 19 | 0.0122 µM
7 | CCCN1CC[C@@H](c2ccc(NS(=O)(=O)c3cc4ccccc4o3)cc2)C1 [Example 79, Benzofuran-2-sulfonic acid [4-((S)-1-propyl-pyrrolidin-3-yl)-phenyl]-amide] | 0.0135 µM | 82 | 1.11 µM
8 | CCCN1CC[C@@H](c2ccc(NS(=O)(=O)c3ccc(-c4ccno4)s3)cc2)C1 [Example 80, 5-Isoxazol-5-yl-thiophene-2-sulfonic acid [4-((S)-1-propyl-pyrrolidin-3-yl)-phenyl]-amide] | 0.0376 µM | 29 | 1.1 µM
9 | CCCN1CC[C@@H](c2ccc(NS(=O)(=O)c3ccc(-c4ccon4)s3)cc2)C1 [Example 81, 5-Isoxazol-3-yl-thiophene-2-sulfonic acid [4-((S)-1-propyl-pyrrolidin-3-yl)-phenyl]-amide] | 0.0313 µM | 37 | 1.16 µM
10 | CCCN1CC[C@@H](c2ccc(NS(=O)(=O)c3ccc(-c4cnco4)s3)cc2)C1 [Example 82, 5-Oxazol-5-yl-thiophene-2-sulfonic acid [4-((S)-1-propyl-pyrrolidin-3-yl)-phenyl]-amide] | 0.00559 µM | 78 | 0.437 µM
11 | CCN1CC[C@@H](c2ccc(NS(=O)(=O)c3ccc(C(C)C)cc3)cc2)C1 [Example 84, 4-Isopropyl-N-[4-((S)-1-ethyl-pyrrolidin-3-yl)-phenyl]-benzenesulfonamide] | 0.00095 µM | 17 | 0.0162 µM
12 | CC(C)c1ccc(S(=O)(=O)Nc2ccc([C@@H]3CCN(C)C3)cc2)cc1 [Example 85, 4-Isopropyl-N-[4-((S)-1-methyl-pyrrolidin-3-yl)-phenyl]-benzenesulfonamide] | 0.00057 µM | 32 | 0.0185 µM
13 | CCCN1CC[C@@H](c2ccc(NS(=O)(=O)c3ccc(CCC(F)(F)F)cc3)cc2)C1 [Example 88, N-[4-((S)-1-Propyl-pyrrolidin-3-yl)-phenyl]-4-(3,3,3-trifluoro-Propyl)-benzenesulfonamide] | 0.00092 µM | 45 | 0.041 µM
14 | CCCc1ccc(S(=O)(=O)Nc2ccc([C@@H]3CCN(CCC)C3)cc2)s1 [Example 89, 5-Propyl-thiophene-2-sulfonic acid [4-((S)-1-propyl-pyrrolidin-3-yl)-phenyl]-amide] | 0.0006 µM | 45 | 0.027 µM
15 | C=CCN1CC[C@H](c2ccc(NS(=O)(=O)c3ccc(C4CC4(F)F)cc3)cc2)C1 (stereo partly drawn) [Example 90, N-[4-((R)-1-Allyl-pyrrolidin-3-yl)-phenyl]-4-(2,2-difluoro-cyclopropyl)benzenesulfonamide] | 0.011 µM | 25 | 0.28 µM
16 | CC(C)c1ccc(S(=O)(=O)Nc2ccc([C@@H]3CCN(CC4CC4)C3)cc2)cc1 [Example 94, N-[4-((S)-1-Cyclopropylmethyl-pyrrolidin-3-yl)-phenyl]-4-isopropyl-benzenesulfonamide] | 0.00023 µM | 21 | 0.0047 µM
17 | CC(C)c1ccc(S(=O)(=O)Nc2ccc([C@@H]3CCN(CCF)C3)cc2)cc1 [Example 96, N-{4-[(S)-1-(2-Fluoro-ethyl)-pyrrolidin-3-yl]-phenyl}-4-isopropyl-benzenesulfonamide] | 0.00083 µM | 70 | 0.0578 µM

Further lines, results first:

Row | Ki [1] | Ki(D2)*/Ki(D3)* [1] | Ki [2] | SMILES
18 | 0.00133 µM | 37 | 0.05 µM | CCCN1CC[C@@H](c2ccc(NS(=O)(=O)c3ccc(C(C)C(F)F)cc3)cc2)C1 (stereo partly drawn) [Example 77, 4-(2,2-Difluoro-1-methyl-ethyl)-N-[4-((S)-1-propyl-pyrrolidin-3-yl)-phenyl]-benzenesulfonamide]
19 | 0.0014 µM | 30 | 0.0419 µM | CCCN1CC[C@@H](c2ccc(NS(=O)(=O)c3ccc(C(C)C(F)(F)F)cc3)cc2)C1 (stereo partly drawn) [Example 78, N-[4-((S)-1-Propyl-pyrrolidin-3-yl)-phenyl]-4-(2,2,2-trifluoro-1-methyl-ethyl)benzenesulfonamide]
20 | 0.00118 µM | 101 | 0.119 µM | CCCN1CC[C@@H](c2ccc(NS(=O)(=O)c3ccc(CCF)cc3)cc2)C1.Cl [Example 86, 4-(2-Fluoro-ethyl)-N-[4-((S)-1-propyl-pyrrolidin-3-yl)-phenyl]-benzenesulfonamide, hydrochloride]
21 | 0.00055 µM | 37 | 0.0205 µM | CCCN1CC[C@@H](c2ccc(NS(=O)(=O)c3ccc([C@H](C)CF)cc3)cc2)C1 [Example 87, 4-((S)-2-Fluoro-1-methyl-ethyl)-N-[4-((S)-1-propyl-pyrrolidin-3-yl)-phenyl]-benzenesulfonamide]
22 | 0.00061 µM | 28 | 0.0173 µM | CCCN1CC[C@@H](c2ccc(NS(=O)(=O)c3ccc(CCCF)cc3)cc2)C1 [Example 92, 4-(3-Fluoro-propyl)-N-[4-((S)-1-propyl-pyrrolidin-3-yl)-phenyl]-benzenesulfonamide]
23 | 0.00048 µM | 31 | 0.0147 µM | CCCN1CC[C@@H](c2ccc(NS(=O)(=O)c3ccc([C@@H](C)CF)cc3)cc2)C1 [Example 93, 4-((R)-2-Fluoro-1-methyl-ethyl)-N-[4-((S)-1-propyl-pyrrolidin-3-yl)-phenyl]-benzenesulfonamide]
24 | 0.0013 µM | 22 | 0.0279 µM | CCCN1CC[C@@H](c2ccc(NS(=O)(=O)c3ccc(C(CF)CF)cc3)cc2)C1 [Example 95, 4-(2-Fluoro-1-fluoromethyl-ethyl)-N-[4-((S)-1-propyl-pyrrolidin-3-yl)-phenyl]-benzenesulfonamide]
